Values after ≈ are worked out from the molar mass of the structure shown.
What was measured:
[1] = system: Mycobacterium tuberculosis; test: Antimicrobial activity against multidrug-resistant Mycobacterium tuberculosis isolate by alamar blue assay; format: functional
[2] = system: Mycobacterium tuberculosis; test: Antimicrobial activity against isoniazid-resistant Mycobacterium tuberculosis isolate by alamar blue assay; format: functional

Structure (SMILES) | MIC [1] [µg/mL] | MIC [2] [µg/mL]
CC1(C)CC[C@]23CO[C@@]4(CC[C@@H]5[C@@]6(C)CC[C@H](O)C(C)(C)[C@@H]6CC[C@@]5(C)[C@]4(C)CC2=O)[C@@H]3C1 [AEGICERIN] | 1.6 (≈ 3.5 µM) | 1.6 (≈ 3.5 µM)
NNC(=O)c1ccncc1 [ISONIAZID] | > 4 | 2 (≈ 14.6 µM)
CC1(C)CC[C@]23CO[C@@]4(CC[C@@H]5[C@@]6(C)CC[C@H](O)C(C)(C)[C@@H]6CC[C@@]5(C)[C@]4(C)C[C@H]2O)[C@@H]3C1 [PROTOPRIMULAGENIN A] | 200 (≈ 436 µM) | 200 (≈ 436 µM)
CO[C@H]1/C=C/O[C@@]2(C)Oc3c(C)c(O)c4c(O)c(c(/C=N/N5CCN(C)CC5)c(O)c4c3C2=O)NC(=O)/C(C)=C\C=C\[C@H](C)[C@H](O)[C@@H](C)[C@@H](O)[C@@H](C)[C@H](OC(C)=O)[C@@H]1C [RIFAMPIN] | > 2 | 0.063 (≈ 0.0766 µM)

From ChEMBL document CHEMBL1157956, “Aegicerin, the first oleanane triterpene with wide-ranging antimycobacterial activity, isolated from Clavija procera” (J Nat Prod, 2006)
